In article PMC9589286, “Ruthenium polypyridine complexes with triphenylamine groups as antibacterial agents against Staphylococcus aureus with membrane-disruptive mechanism” (Frontiers in Chemistry, 2022):

Columns and labels:
Staphylococcus aureus [1] = experiment: DiSC3(5) and DAPI/PI fluorescence staining; type: cell-based; settings: 4 μg ml^−1, 2 h
Description: Firstly, S. aureus was cultured in TSB medium to exponential phase. Exponential growth bacteria were collected by centrifugation at 5000 rpm for 2 min, then washed with PBS and diluted to OD600 value of 0.3. Secondly, Ru-3 (4 μg ml^−1) was added to the bacterial suspension solution and incubated at 37°C for 2 h, then the supernatant was removed by centrifuging. Thirdly, the bacterial was washed with PBS for three times and suspendedin 500 μL PBS. Subsequently, adding 20 μL DiSC3(5) (30 μM), incubating for 1 h under dark conditions. For DAPI and PI, adding 20 μL DAPI (10 μg ml^−1), incubating for 15 min under dark conditions. Next, adding 20 μL PI (15 μg ml^−1) in the same tube, and incubating for 15 min under dark conditions. After that, centrifuge, removing the supernatant. Eventually, suspending with 500 uL PBS and 20 μL samples were transfered on glass slides and observed under fluorescent cell imager.

[2] = Partition coefficient, shake flask 1-octanol/PBS; type: physicochemical
Description: The partition coefficients of all complexes were determined by standard shake flask method in 1-octanol and buffer liquid system ([Yang et al., 2021]). In brief, the octanol/water partition coefficient is obtained by the incubation of 2 ml of 25 μg ml^−1 ruthenium complex 1-octanol and 2 ml PBS samples. After shaking the solution for 6 h, the samples were stood for 2 h. The absorbance of octanol complex at 282 nm before and after oscillation was measured. The absorbance of 1-octanol before oscillation minus the absorbance of 1-octanol after oscillation is the absorbance of the complex in water. Each experiment was repeated three times. The partition coefficient is reported as the number of octanol divided by the number of water.

Staphylococcus aureus [3] = experiment: Drug resistance study, 20 generations at sub inhibitory concentration; type: cell-based
Description: After Staphylococcus aureus was cultured for 5 h, the bacteria were diluted 1000 times with fresh TSB and the MIC of Ru-3 was measured. The bacterial solution grown at the sub inhibitory concentration of compound Ru-3 was inoculated into fresh TSB medium for 5 h, then the MIC was measured, and the above procedure was repeated for 20 generations. Ampicillin was used as the control.

[4] = test system: Staphylococcus aureus in biofilm; experiment: Killing bacteria in established biofilm; type: cell-based; settings: 32 μg ml^−1; initial 8.62
Description: To establish bacterial biofilm, the overnight cultured Staphylococcus aureus strain was diluted 1000 times with fresh TSB medium, then the bacterial suspension was transferred to 96 well plate and cultured for 24 h. Subsequently, the supernatant was removed and the formed biofilm was washed 3 times with PBS solution. 200 μL solution containing Ru-3 of different concentrations (512, 256, 128, 64, 32, 16, 8, 4 μg ml^−1) were added and further incubated at 37°C for 24 h. Biofilm without Ru-3 were used as positive controls. Then the supernatant was discarded and the residual biofilm was cleaned using 200 μL PBS 3 times. Next, fresh medium was added to culture for 24 h ([Yang et al., 2021]). The solution after culture was diluted 1000 times and 100 μL was taken out for plate coating and counting.

Staphylococcus aureus [5] = experiment: MIC by microdilution in TSB broth; type: cell-based; settings: S. aureus, 37°C, 20 h
Description: (§1) Antibacterial activity was evaluated by measuring MIC (minimum inhibitory concentration) and MBC (minimum bactericidal concentration) values. The MIC value was measured by the microdilution method using TSB broth with 96 well plates ([Carlsen et al., 1981]) and the MBC value was determined by LB plates. In brief, the overnight cultured bacteria were 1: 1000 diluted with fresh medium to get a bacterial suspension. After incubation at 37°C for 20 h, the growth of bacteria is monitored by observing the turbidity of the culture. The bacterial solution was diluted as above method and the complexes were incubated with bacterial solution for 2 h. Then 100 μL bacterial solution was taken for plate coating. The Staphylococcus aureus growth inhibition trend in the presence of complexes was obtained. The MBC values of complexes were determined by LB plates after culturing in the same method for 24 h. All experiments were controlled with sterile water and repeated in parallel at least three times.

Staphylococcus aureus [6] = experiment: Nucleic acid leakage, 260 nm absorbing material; type: cell-based; settings: 4 μg/ml, 2 h
Description: To verify the membrane damage, the loss of 260 nm absorbing material was carried out ([Yu et al., 2021]). Briefly, overnight cultured bacteria were diluted 1:1000 in fresh TSB and shaken at 37°C for about 5 h until the exponential stage was reached. The supernatant was removed by centrifugation, then the bacteria were resuspended to OD600 = 1 with PBS, which was further treated with Ru-3 or polymyxin B and centrifuged after 2 h to precipitate bacterial cells. Subsequently, the loss of 260 nm absorbing material, including the release of DNA and RNA in the filtrate, was measured at 260 nm.

Staphylococcus aureus [7] = experiment: MBC determined by LB plates; type: cell-based; settings: S. aureus, 24 h
Description: as §1

Staphylococcus aureus [8] = experiment: Membrane permeability, ONPG hydrolysis; type: cell-based; settings: Ru-3 2 or 4 μg/ml vs vancomycin 2 μg/ml
Description: O-nitrobenzene-β-D-galactopyranoside (ONPG) was the substrate of intracellular ß-galactosidase, that was used to determine the permeability of Staphylococcus aureus cell membrane. Staphylococcus aureus was cultured to logarithmic phase, then washed and cultured in M9 lactose medium, in which lactose was used as the only carbon source of a single colony and stayed overnight at 37°C. After washing three times with PBS, the culture was diluted to OD600 = 0.3 (PBS). […] The hydrolysis of ONPG to o-nitrophenol over time was monitored by UV every 15 min at 415 nm. A similar procedure was used for untreated cells as control ([Xuan et al., 2021]).

Staphylococcus aureus [9] = experiment: In vivo antibacterial activity, mouse skin infection model; set-up: species or system mice; settings: cream with 50 μg ml^−1, 4 times a day, after 4 days
Description: S. aureus was cultured in TSB medium to exponential phase. Bacterial precipitates were collected and washed with PBS three times by centrifugation, which was diluted to OD600 = 1 (1.02 × 10^8 CFU/ml) with sterile normal saline. The day before the infection, the hair on the back of the mice was shaved off. Then depilatory cream (Veet®) was used to remove the remaining hair. Subsequently, 100 μL S. aureus was injected in subcutaneous and the abscess formed after 12 h later. All mice infected with S. aureus were divided into two groups (n = 5 in each group), including control group and treatment group, Ru-3 (0.05 mg ml^−1), which was fully mixed in sterile cream. Afterwards, mouse abscesses were treated with creams containing Ru-3 4 times a day. After 10 days, the experiment was ended. The study was conducted in strict accordance with NIH guidelines for the care and use of laboratory animals (NIH Publication No. 85–23, revised in 1985), and was reviewed and approved by the institutional animal care and use Committee of Guangxi Normal University (Guilin, China).

Substance: [Ru(dmb)2PMA] (PF6)2 [Ru-3]
- DAPI/PI fluorescence (Staphylococcus aureus [1]): blue and red fluorescence
- membrane depolarization, DiSC3(5) fluorescence (Staphylococcus aureus [1]): strong green fluorescence
- LgP [2]: 1.79
- logD o/w [2]: ca. 1.7885
- increase of MIC value after 20 generations (Staphylococcus aureus [3]; 20 passages at sublethal concentration): four
- MIC values against antibiotic resistant S. aureus (Staphylococcus aureus [3]; ampicillin, polymyxin B, tetracycline, clindamycin resistant S. aureus obtained after 20 generations): almost the same as the wild type
- number of the survival Staphylococcus aureus in the biofilm [4]: 0 log10 colony-forming units per milliliter (CFU/ml)
- MIC (Staphylococcus aureus [5]): 4 µg/mL
- Δ% Nucleic acid leakage (Staphylococcus aureus [6]): 20%
- MBC (Staphylococcus aureus [7]): 32 µg/mL
- plasma membrane permeability (ONPG) (Staphylococcus aureus [8]): better membrane permeability
- degree of wound healing (Staphylococcus aureus [9]): increased significantly
